According to patent US8440724B2, “Inhibiting neurotransmitter reuptake” (Mayo Foundation for Medical Education and Research, priority 2008, dated 2013):

Experiments:
[1] = tested on: hSERT, hNET, hDAT; test: Human transporter binding: rank order and range of potency over the three transporters; conditions: from KD values
Excerpt: The program was modified to calculate the Hill coefficient (nH). Data are presented as geometric mean±S.E.M. of at least three independent experiments. One-component models and two-component models were compared using the root mean square error of each fit and the F test.

[2] = tested on: rat 5-HT, NE and DA transport, synaptosomal preparations; test: Rat brain synaptosomal transport: rank order of potency; type: biochemical; conditions: from Ki values; S = 5HT, N = NE, D = DA
Protocol: The dissected tissues were separately homogenized in 20 volumes (cortical) or 40 volumes (striatal) of ice-cold, oxygenated HEPES buffer 0.32 M sucrose containing 11 mM glucose (pH 7.4) in a glass Potter-Elvehjem homogenizer with Teflon® pestle (8 strokes, 900 rpm). The homogenates were centrifuged at 1,000×g for 10 minutes. The resulting supernatant was decanted and further centrifuged at 20,000×g for 20 minutes at 4° C. […] The synaptosomal protein concentration was determined by using the BCA assay (Pierce Biotechnology Inc, Rockford, Ill.), according to the manufacturer's instructions. Synaptosomal protein (1.0-2.5 mg) was suspended in 1 mL oxygenated incubation buffer as defined above. Test amine compound was pre-incubated with the synaptosomal preparation for 30 minutes at 37° C. in a shaking water bath (80 oscillations/minute).

[3] = tested on: male C57BL/6J mice; test: Tail suspension test (TST) in mice; type: in vivo, mouse; conditions: mice, 15 mg/kg IP, FIG. 10A
Protocol: When mice are suspended by their tail, there is an initial period of agitation, followed by immobility. This test identifies antidepressant compounds, which decrease the duration of immobility.
Test compounds were prepared by formulating the compounds with a pharmaceutically acceptable carrier such as saline. […] Each mouse was then subjected to the tail-suspension test (TST). Each mouse (n>3) was suspended by its tail 45 cm above the table top with the use of adhesive tape placed 1 cm from the tip of its tail. Behavior was scored every 5 seconds throughout the 6-minute test as either mobile or immobile (FIG. 10A-D) or total duration of immobility during the 6-minute test (FIGS. 10E and 10H). Mice were considered immobile only when hanging passively and completely motionless. Scores for each behavior were expressed as total counts per 6-minute session.

[4] = tested on: mice; test: Locomotor activity in motility chamber, mice; type: in vivo, mouse; conditions: 15 mg/kg IP, 10 minute intervals for 3 hours, FIG. 11
[5] = tested on: Male Sprague-Dawley rats; test: Forced swim test in rats; type: in vivo, rat; conditions: 15 mg/kg IP, FIG. 12A
Protocol: When rats are placed in a cylinder of water from which they cannot escape, they will remain immobile in the water for the majority of the test.
Water was changed between trials, and the procedure involved a pretest and a 5-minute test separated by 24 hours. During the pretest, rats (adapted to the experimental room for no less than one hour) were placed in the cylinder for 15 minutes. Following this initial exposure, the rats were dried with towels and transferred to a “drying cage” situated under a warming lamp. […] The following day, rats were transferred to the experimental room and acclimated for at least one hour.
The rat was considered immobile when floating motionless or making only those movements necessary to keep its head above the surface of the water. Scores for each behavior (swimming or immobility) were expressed as total counts per 5-minute session. Statistical analysis was performed using ANOVA followed by the Tukey test for post-hoc comparisons.

CN(C)CCCN1c2ccccc2CCc2ccccc21 [Imipramine, reference compound]
Potency (rank-order of potency of binding; S = hSERT, N = hNET, D = hDAT) [1]: S > N > D | Potency (rank order, transport into rat brain synaptosomal preparations) [2]: N > S > D | Mobility in TST (counts per 6-minute session) vs saline ([3]; 30 minutes before testing): significantly (P<0.02) increased mobility | Immobility in TST (counts per 6-minute session) vs saline [3]: significantly (P<0.02) reduced immobility | Effect on locomotor activity [4]: Only d-amphetamine caused a significant effect on locomotor activity | Immobility in forced swim test vs saline [5]: statistically (P<0.04) less immobility | Swimming in forced swim test vs saline [5]: statistically (P<0.04) more swimming behavior
